Assay results as given in article PMC4015282, “Transcriptional comparison of the filamentous fungus Neurospora crassa growing on three major monosaccharides D-glucose, D-xylose and L-arabinose” (Biotechnology for Biofuels, 2014).

What was measured:
Format in all cases: cell-based
Conditions in all cases: 3 mM sugar; labelled compound
GLT-1 (NCU01633) [1] = target: T1, GLT-1 (NCU01633) (Neurospora crassa, UniProt Q1K4S3); test: radiolabelled sugar uptake in recombinant yeast, […] min; growth complementation
T1 construct: cDNA cloned in pRS426 shuttle vector (PGK1 promoter, GFP ORF, CYC1 terminator)
T1 sequence (Q1K4S3 1-532): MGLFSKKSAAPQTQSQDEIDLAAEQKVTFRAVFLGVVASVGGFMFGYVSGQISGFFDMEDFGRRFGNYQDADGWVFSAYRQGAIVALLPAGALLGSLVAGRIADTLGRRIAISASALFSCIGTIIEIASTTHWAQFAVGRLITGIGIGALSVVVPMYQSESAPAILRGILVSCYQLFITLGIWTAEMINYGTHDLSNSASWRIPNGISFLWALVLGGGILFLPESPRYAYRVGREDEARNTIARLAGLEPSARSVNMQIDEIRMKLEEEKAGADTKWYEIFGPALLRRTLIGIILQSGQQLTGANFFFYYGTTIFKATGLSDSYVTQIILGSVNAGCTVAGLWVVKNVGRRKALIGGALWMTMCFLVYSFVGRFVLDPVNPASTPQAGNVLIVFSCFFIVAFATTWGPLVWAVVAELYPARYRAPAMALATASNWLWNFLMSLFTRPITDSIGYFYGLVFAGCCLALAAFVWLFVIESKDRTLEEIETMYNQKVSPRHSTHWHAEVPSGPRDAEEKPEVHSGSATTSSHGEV

LAT-1 (NCU02188) [2] = target: T2, LAT-1 (NCU02188) (Neurospora crassa, UniProt Q7S4D2); test: as above
T2 construct: expressed from pRS426-type vector in hexose-transporter-null S. cerevisiae EBY.VW4000
T2 sequence (Q7S4D2 1-518): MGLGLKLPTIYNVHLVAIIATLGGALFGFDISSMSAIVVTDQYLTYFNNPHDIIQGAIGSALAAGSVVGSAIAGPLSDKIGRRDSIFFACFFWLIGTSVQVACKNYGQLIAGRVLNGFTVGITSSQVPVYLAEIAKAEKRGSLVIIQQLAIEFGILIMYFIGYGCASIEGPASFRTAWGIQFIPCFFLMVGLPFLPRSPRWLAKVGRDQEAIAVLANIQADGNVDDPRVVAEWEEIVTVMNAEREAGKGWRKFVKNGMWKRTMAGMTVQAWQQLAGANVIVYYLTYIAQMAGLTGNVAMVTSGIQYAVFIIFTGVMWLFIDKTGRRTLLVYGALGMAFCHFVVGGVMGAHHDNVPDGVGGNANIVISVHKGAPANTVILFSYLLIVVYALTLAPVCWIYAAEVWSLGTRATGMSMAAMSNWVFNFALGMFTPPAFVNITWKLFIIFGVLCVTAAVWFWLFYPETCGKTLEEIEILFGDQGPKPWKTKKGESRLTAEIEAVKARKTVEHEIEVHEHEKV

GLT-1 (NCU01633) [3] = target: T1, GLT-1 (NCU01633); test: radiolabelled sugar uptake in recombinant yeast, […] min
LAT-1 (NCU02188) [4] = target: T2, LAT-1 (NCU02188); test: as above

**Q.** How did the “radiolabelled sugar uptake in recombinant yeast, 2 min; growth complementation” value (GLT-1 (NCU01633) [1]) turn out when `OC[C@H]1OC(O)[C@H](O)[C@@H](O)[C@@H]1O` (stereo partly drawn) [D-glucose] was run?
**A.** Its value is “D-glucose uptake was two orders of magnitude higher compared to that of D-xylose”.

**Q.** What about the “radiolabelled sugar uptake in recombinant yeast, 2 min; growth complementation” value (LAT-1 (NCU02188) [2]) of the same compound?
**A.** Its value is “does complement growth of EBY.VW4000 strain on D-glucose, indicating this protein can transport D-glucose”.

**Q.** For `OC1OC[C@@H](O)[C@H](O)[C@H]1O` (stereo partly drawn) [D-xylose], which “radiolabelled sugar uptake in recombinant yeast, 2 min” value (GLT-1 (NCU01633) [3]) is on record?
**A.** Its value is “D-glucose uptake was two orders of magnitude higher compared to that of D-xylose”.

**Q.** For `OC1OC[C@H](O)[C@H](O)[C@H]1O` (stereo partly drawn) [L-arabinose], which “radiolabelled sugar uptake in recombinant yeast, 2 min” value (LAT-1 (NCU02188) [4]) is on record?
**A.** Its value is “the L-arabinose uptake rate was much higher than that of D-glucose”.
